The numbers were not newly measured in patent publication US9205054B2 (LOSAN PHARMA GMBH, priority 2005, dated 2015), which cites them from elsewhere.

Like-named read-outs stand apart in the source and are kept apart here.

For data set [1] the following is noted: 0.1 molar hydrochloric acid solution, after one hour.

For the compound `CC(C)Cc1ccc(C(C)C(=O)O)cc1` (racemic) [Ibuprofen, 2-(4-isobutylphenyl)propionic acid], the dissolved ibuprofen in data set [1] was 10%. The solubility entry is recorded as “under 0.1 g/l” (pH 1-5) and “about 20 g/l” (pH 7.2).
